Data as given in paper PMC3315319 (Nucleic Acids Research, 2011).

Biological target: T1, gp16 (eGFP-gp16) (Bacillus phage phi29, UniProt P11014)
T1 sequence (P11014 1-332): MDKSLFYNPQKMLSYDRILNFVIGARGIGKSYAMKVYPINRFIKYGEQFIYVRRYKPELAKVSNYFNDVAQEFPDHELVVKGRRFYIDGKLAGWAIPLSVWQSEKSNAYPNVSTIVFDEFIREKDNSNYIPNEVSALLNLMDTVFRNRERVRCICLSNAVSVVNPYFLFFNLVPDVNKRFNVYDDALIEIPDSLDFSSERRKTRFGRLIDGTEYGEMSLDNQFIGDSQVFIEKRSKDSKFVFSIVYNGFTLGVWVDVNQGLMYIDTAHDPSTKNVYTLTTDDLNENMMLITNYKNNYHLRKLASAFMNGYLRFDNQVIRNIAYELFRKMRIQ
Assay: EMSA, release of dsDNA from gp16/dsDNA/γ-S-ATP complex
Assay type: binding
Settings: γ-S-ATP present, Cy3-dsDNA; indirect read-out of nucleotide action

## Nc1ncnc2c1ncn2[C@@H]1O[C@H](COP(=O)(O)OP(=O)(O)O)[C@@H](O)[C@H]1O [ADP]
  EMSA, release of dsDNA from gp16/dsDNA/γ-S-ATP complex: ADP also stimulated the release of gp16 from the gp16/dsDNA complex
